Assay results: ChEMBL document CHEMBL1127360, “Antipodal alpha-N-(methyl through decyl)-N-normetazocines (5,9 alpha-dimethyl-2'-hydroxy-6,7-benzomorphans): in vitro and in vivo properties” (J Med Chem, 1994)
Active and inactive are the calls of the source. No cut-off for these calls is given here.

Tests used:
[1] = target: Sigma non-opioid intracellular receptor 1 (Homo sapiens, UniProt Q99720); test: Binding affinity against sigma receptor was determined
Mu-type opioid receptor = Mu-type opioid receptor (Rattus norvegicus, UniProt P33535); test: Inhibition against mu receptor using [3H]DAMGO in homogenate of rat brain cerebellum; assay type: tissue-based
[2] = target: Kappa-type opioid receptor (Homo sapiens) (UniProt P41145); test: Ratio of potencies of (+) and (-) enantiomers against kappa receptors in monkeys; conditions: Cercopithecidae; target entry is the homologue from another species
Glutamate NMDA receptor = test: Inhibition using [3H]TCP in homogenate of rat brain; assay type: tissue-based
[3] = target: Mu-type opioid receptor (Homo sapiens) (UniProt P35372); test: Ratio of potencies of (+) and (-) enantiomers against Mu receptors in monkeys; conditions: Cercopithecidae; target entry is the homologue from another species
[4] = target: Mu-type opioid receptor (Rattus norvegicus) (UniProt P33535); test: Ratio of potencies of (+) and (-) enantiomers against Mu receptors in Rats
[5] = target: T1, Glutamate NMDA receptor (Rattus norvegicus) (UniProt P35439+Q00959+Q00960+Q00961+Q62645+Q8VHN2+Q9R1M7); test: Ratio of potencies against PCP receptor to that of Mu receptor of rat; assay type: protein-complex assay
Mus musculus [6] = test: In vivo antinociceptive activity through hot plate (HP) by placing mouse on hot plate, and calculating number of times it jumps or licks its paw in 5 seconds; assay type: functional
[7] = target: Mu-type opioid receptor (Homo sapiens) (UniProt P35372); test: Ratio of potencies against Mu receptor to that of kappa receptor of monkey; conditions: Cercopithecidae; target entry is the homologue from another species
Mus musculus [8] = test: In vivo antinociceptive activity was tested through injecting 2 mg/kg ip phenylquinone, activity calculated by total number of abdominal-stretches; assay type: functional, Abdomen; conditions: route intraperitoneal
Cavia porcellus [9] = species on record: Cavia porcellus; test: Ratio of potencies against sigma receptor to that of Mu receptor of rat
Cercopithecidae = test: Ratio of potencies against Mu receptor of monkey to that of rat
Cavia porcellus [10] = species on record: Cavia porcellus; test: Ratio of potencies against PCP receptor to that of sigma receptor
Mus musculus [11] = test: In vivo for its narcotic antagonistic activity of the antinociceptive effect in mouse; assay type: functional, organism-based
Mus musculus [12] = test: (§1) In vivo antinociceptive activity was tested through tail flick (TF) with this compound in mouse; assay type: functional; design: unit not given beside the values
[13] = target: T1, Glutamate NMDA receptor (Rattus norvegicus); test: Ratio of potencies of (+) and (-) enantiomers against PCP in rats
Mus musculus [14] = test: In vivo antinociceptive activity at 30 mg/kg was tested through hot plate (HP) by placing mouse on hot plate, and calculating number of times it jumps or licks its paw in 5 seconds; assay type: functional
Mus musculus [15] = test: In vivo antinociceptive activity at 30 mg/kg was tested through injecting 2 mg/kg ip phenylquinone, activity calculated by total number of abdominal-stretches per group counted over a 1 min period; assay type: functional
Mus musculus [16] = test: In vivo antinociceptive activity was tested through tail flick (TF) with this compound in mouse at 30 mg/kg concentration; assay type: functional
Mus musculus [17] = test: as §1; assay type: functional, organism-based
Mus musculus [18] = test: In vivo antinociceptive activity was tested through hot plate (HP) and counting jumps or paw licks; assay type: functional, organism-based
Mus musculus [19] = test: Compound was tested in vivo for its narcotic antagonistic activity of the antinociceptive effect in mouse; assay type: functional
Mus musculus [20] = test: In vivo antinociceptive activity through injecting 2 mg/kg ip phenylquinone, activity calculated by total number of abdominal-stretches per group counted over a 1 min period; Inactive; assay type: functional, organism-based; design: dose 2 mg/kg
Mus musculus [21] = test: Compound was tested in vivo for its narcotic antagonistic activity of the antinociceptive effect in mouse at 30 mg/kg; assay type: functional
Mus musculus [22] = test: In vivo antinociceptive activity at 10 mg/kg was tested through hot plate (HP) by placing mouse on hot plate, and calculating number of times it jumps or licks its paw in 5 seconds; assay type: functional
Mus musculus [23] = test: In vivo antinociceptive activity at 1 mg/kg was tested through hot plate (HP) by placing mouse on hot plate, and calculating number of times it jumps or licks its paw in 5 seconds; assay type: functional
Mus musculus [24] = test: In vivo antinociceptive activity at 20 mg/kg was tested through injecting 2 mg/kg ip phenylquinone, activity calculated by total number of abdominal-stretches per group counted over a 1 min period; assay type: functional

Sequence of Kappa-type opioid receptor (Homo sapiens) (P41145 whole entry): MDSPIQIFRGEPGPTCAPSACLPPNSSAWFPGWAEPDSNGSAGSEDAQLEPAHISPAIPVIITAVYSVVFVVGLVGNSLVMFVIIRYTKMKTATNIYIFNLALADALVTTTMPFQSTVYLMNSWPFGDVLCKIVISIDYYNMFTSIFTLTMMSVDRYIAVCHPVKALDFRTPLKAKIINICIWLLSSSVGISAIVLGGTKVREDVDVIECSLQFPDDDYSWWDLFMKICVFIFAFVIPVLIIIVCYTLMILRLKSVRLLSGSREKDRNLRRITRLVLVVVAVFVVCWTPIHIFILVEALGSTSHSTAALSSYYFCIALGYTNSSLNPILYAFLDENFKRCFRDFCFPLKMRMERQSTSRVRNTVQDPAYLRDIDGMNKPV
Sequence of Mu-type opioid receptor (Homo sapiens) (P35372 whole entry): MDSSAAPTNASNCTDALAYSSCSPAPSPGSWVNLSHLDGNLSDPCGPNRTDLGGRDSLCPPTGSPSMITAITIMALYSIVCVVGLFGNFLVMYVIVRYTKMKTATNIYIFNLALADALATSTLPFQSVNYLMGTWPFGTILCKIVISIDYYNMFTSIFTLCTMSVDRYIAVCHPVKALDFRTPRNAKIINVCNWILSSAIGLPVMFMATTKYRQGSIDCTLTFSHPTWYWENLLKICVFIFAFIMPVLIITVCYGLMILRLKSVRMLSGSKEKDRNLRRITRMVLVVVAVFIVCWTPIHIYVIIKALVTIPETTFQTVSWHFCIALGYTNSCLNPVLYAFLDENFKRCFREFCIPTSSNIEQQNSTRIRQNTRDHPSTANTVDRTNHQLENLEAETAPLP
Sequence of Mu-type opioid receptor (P33535 whole entry): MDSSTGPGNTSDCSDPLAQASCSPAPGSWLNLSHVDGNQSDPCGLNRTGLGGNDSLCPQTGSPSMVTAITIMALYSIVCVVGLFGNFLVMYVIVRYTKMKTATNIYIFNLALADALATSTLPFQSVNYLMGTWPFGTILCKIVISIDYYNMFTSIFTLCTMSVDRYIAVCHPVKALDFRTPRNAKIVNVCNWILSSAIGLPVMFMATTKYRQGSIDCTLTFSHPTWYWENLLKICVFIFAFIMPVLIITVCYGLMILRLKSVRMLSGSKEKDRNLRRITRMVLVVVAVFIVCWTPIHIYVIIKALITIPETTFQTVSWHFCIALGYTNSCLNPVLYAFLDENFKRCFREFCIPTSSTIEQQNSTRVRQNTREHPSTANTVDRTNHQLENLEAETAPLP
Sequence of Mu-type opioid receptor (Rattus norvegicus) (P33535 whole entry): as above
Sequence of Sigma non-opioid intracellular receptor 1 (Q99720 whole entry): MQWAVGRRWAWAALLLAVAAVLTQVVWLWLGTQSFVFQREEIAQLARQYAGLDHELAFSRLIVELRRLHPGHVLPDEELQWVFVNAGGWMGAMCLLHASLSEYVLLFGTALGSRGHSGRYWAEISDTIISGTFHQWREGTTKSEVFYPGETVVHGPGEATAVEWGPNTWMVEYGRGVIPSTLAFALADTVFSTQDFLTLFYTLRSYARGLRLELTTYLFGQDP

Row | SMILES | Ki (Mu-type opioid receptor) [nM] | Ratio [2] | Ki (Glutamate NMDA receptor) [nM] | Ratio [3] | Ratio [4] | Ratio [5] | Activity (Mus musculus [6]) | Ratio [7] | Activity (Mus musculus [8]) | Ratio (Cavia porcellus [9]) | Ratio (Cercopithecidae) | Ratio (Cavia porcellus [10]) | Activity (Mus musculus [11]) | Activity (Mus musculus [12]) | Ratio [13] | Activity (Mus musculus [17]) | Activity (Mus musculus [18]) | further results
1 | C=CCN1CCC2c3cc(O)ccc3CC1C2C (single isomer, unassigned; (-)) |  |  |  |  |  |  |  |  |  |  |  |  |  |  |  |  |  | Ki [1]: 4300 nM
2 | CCCCCCCN1CC[C@]2(C)c3cc(O)ccc3CC1[C@@H]2C | 8.8 | 23 | 5630 | 9.6 | 28 | 640 | 2.4 | 1.2 | 0.13 | 5.6 | 3.1 | 115 | inactive | 1.7 | 0.5 |  |  | 
3 | C[C@H]1C2Cc3ccc(O)cc3[C@@]1(C)CCN2 | 23 |  | 197 |  |  |  |  |  |  |  |  |  | inactive |  |  |  |  | inhibition in vivo at 30 mg/kg (Mus musculus [14]): 38%; Inhibition (Mus musculus [15]): 66%; inhibition in vivo at 30 mg/kg (Mus musculus [16]): 13%
4 | CCCCCCN1CC[C@]2(C)c3cc(O)ccc3CC1[C@@H]2C | 4.7 | 53 | 3350 | 8.2 | 169 | 712 | 2.4 | 1.1 | 0.13 | 8.5 | 8.3 | 84 | inactive | 1.1 | 2.2 |  |  | 
5 | CCCCN1CC[C@@]2(C)c3cc(O)ccc3CC1[C@H]2C | 2880 |  | 893 |  |  | 0.3 |  | 0.6 |  | 0.002 | 0.4 | 149 | inactive |  |  | inactive | inactive | Inhibition (Mus musculus [15]): 43%
6 | CCCN1CC[C@]2(C)c3cc(O)ccc3CC1[C@@H]2C | 7.6 | 226 | 264 | 629 | 687 | 35 |  | 1.3 | 22 | 97 | 0.2 | 0.4 |  |  | 2.3 | inactive | inactive | Activity (Mus musculus [19]): 0.4
7 | CCCCCCCN1CC[C@]2(C)c3cc(O)ccc3CC1[C@H]2C | 243 |  | 2570 |  |  | 11 | 11.5 | 2.8 | 3.5 | 0.008 | 1.1 | 1350 | inactive | 12.9 |  |  |  | 
8 | CCCCCCCCCN1CC[C@]2(C)c3cc(O)ccc3CC1[C@H]2C | 1380 |  | 4150 |  |  | 3 |  | 18 |  | 0.009 | 0.1 | 346 | inactive |  |  | inactive | inactive | Activity (Mus musculus [20]): inactive
9 | CCCCCN1CC[C@]2(C)c3cc(O)ccc3CC1[C@@H]2C | 16 |  | 2470 |  |  |  | 2.4 |  | 0.2 |  |  |  | inactive | 1.3 |  |  |  | 
10 | CCCN1CC[C@@]2(C)c3cc(O)ccc3CC1[C@H]2C | 5220 |  | 606 |  |  | 0.1 |  | 0.5 |  | 0.008 | 0.2 | 14.1 |  |  |  | inactive | inactive | inhibition in vivo at 30 mg/kg (Mus musculus [21]): 20%; Activity (Mus musculus [20]): inactive
11 | CCCCCCN1CC[C@@]2(C)c3cc(O)ccc3CC1[C@H]2C | 795 |  | 7300 |  |  | 9.2 |  | 7.1 | 5.6 | 0.003 | 0.4 | 3180 | inactive | 21.3 |  |  | inactive | 
12 | CCN1CC[C@]2(C)c3cc(O)ccc3CC1[C@@H]2C | 32 |  | 1870 |  |  |  |  |  | 1.4 |  |  |  |  |  |  | inactive |  | inhibition in vivo at 30 mg/kg (Mus musculus [14]): 25%; Activity (Mus musculus [19]): 3.7; inhibition in vivo at 10 mg/kg (Mus musculus [22]): 25%; inhibition in vivo at 1 mg/kg (Mus musculus [23]): 13%
13 | CCCCCCCCCCN1CC[C@]2(C)c3cc(O)ccc3CC1[C@H]2C | 4620 |  | 4190 |  |  | 0.9 |  | 3 |  | 0.02 | 0.2 | 61 | inactive |  |  | inactive | inactive | Activity (Mus musculus [20]): inactive
14 | CCCCN1CC[C@]2(C)c3cc(O)ccc3CC1[C@@H]2C | 13 | 160 | 613 | 365 | 221 | 47 |  | 1.4 |  | 8 | 0.3 | 5.9 |  |  | 1.5 | inactive | inactive | Activity (Mus musculus [19]): 1.5; Inhibition (Mus musculus [15]): 40%
15 | CCCCCCCCN1CC[C@]2(C)c3cc(O)ccc3CC1[C@H]2C | 522 |  | 786 |  |  | 1.5 | 11.1 | 14.2 | 7.8 | 0.005 | 0.3 | 281 | inactive |  |  |  |  | inhibition in vivo at 30 mg/kg (Mus musculus [16]): 14%
16 | CCN1CC[C@@]2(C)c3cc(O)ccc3CC1[C@H]2C | 10000 |  | 130 |  |  |  |  |  | 33.5 |  |  |  | inactive |  |  | inactive | inactive | 
17 | CCCCCCCCN1CC[C@]2(C)c3cc(O)ccc3CC1[C@@H]2C | 30 | 29 | 7970 | 2.7 | 17 | 266 | 5.4 | 1.3 | 0.5 | 1.2 | 2 | 228 | inactive | 10.3 | 0.1 |  |  | 
18 | C[C@H]1C2Cc3ccc(O)cc3[C@@]1(C)CCN2C | 11 | 222 | 1190 | 328 | 452 | 108 | 0.6 | 4 | 0.3 | 1640 | 0.4 | 0.07 | inactive | 0.8 | 0.03 |  |  | 
19 | C=CCN1CC[C@]2(C)c3cc(O)ccc3CC1[C@@H]2C (single isomer, unassigned; (+)) |  |  |  |  |  |  |  |  |  |  |  |  |  |  |  |  |  | Ki [1]: 124 nM
20 | CCCCCCCCCCN1CC[C@]2(C)c3cc(O)ccc3CC1[C@@H]2C | 507 | 1 | 10000 | 0.8 | 9.1 | 20 |  | 2.3 |  | 0.08 | 2 | 263 | inactive |  | 0.4 | inactive | inactive | Activity (Mus musculus [20]): inactive
21 | CCCCCCCCCN1CC[C@]2(C)c3cc(O)ccc3CC1[C@@H]2C | 151 | 3.2 | 6170 | 0.7 | 9.1 | 41 |  | 3.9 |  | 0.2 | 1.2 | 193 | inactive |  | 0.7 | inactive | inactive | Activity (Mus musculus [20]): inactive
22 | CCCCCN1CC[C@@]2(C)c3cc(O)ccc3CC1[C@H]2C | 1740 |  | 1700 |  |  |  | 38 |  | 1 |  |  |  | inactive | 20.4 |  |  |  | 
23 | C[C@@H]1C2Cc3ccc(O)cc3[C@]1(C)CCN2C | 4970 |  | 41 |  |  | 0.008 |  | 2.7 |  | 0.3 | 0.3 | 0.03 |  |  |  | inactive | inactive | Inhibition (Mus musculus [24]): 43%
